From patent US9551724B2, “5-fluoro-uracil immunoassay” (SALADAX BIOMEDICAL, INC., priority 2005, dated 2017)

What was measured:
Assay type in all cases: binding, BALB/c mice
[1] = test system: polyclonal antibody to 3-Substituted 5-FU BTG Immunogen (example 6a); assay: Indirect competitive microtiter plate immunoassay (ELISA), antibodies to 5-FU derivative 13 conjugate; plate coating 1-substituted BSA conjugate (20:1, example 8); conditions: relative to 5-FU (ratio of IC50 for 5-FU to IC50 of analyte), 3-Substituted BTG Immunogen, plate coating 1-Substituted BSA Conjugate (20:1 ratio)
Description: (§1) Ten Female BALB/c mice were immunized i.p. with 100 μg/mouse of 5-FU-KLH prepared in example 5 or with 5-FU-BTG prepared in example 6a, emulsified in Complete Freund's Adjuvant. Mice were boosted once four weeks after the initial injection with 100 μg/mouse of the same immunogens emulsified in Incomplete Freund's Adjuvant. Ten days after the boost test bleeds from each mouse were obtained by orbital bleed. The anti-serum from these test bleeds contained 5-FU antibodies evaluated in Examples 12a, 13, and 14. For monoclonal antibodies ten Female BALB/c mice were immunized i.p. with 100 μg/mouse of 3-substituted 5-FU-KLH prepared in example 6b, emulsified in Complete Freund's Adjuvant. Mice were boosted once four weeks after the initial injection with 100 μg/mouse of the same immunogens emulsified in Incomplete Freund's Adjuvant. Ten days after the boost test bleeds from each mouse were obtained by orbital bleed and these were screened as in examples 12a and 15. To produce monoclonal antibodies starting four days before the fusion (day 0), the mice were injected i.p. with 400 μg (day 3), 200 μg (day 2) and 200 μg (day 1) 3-substituted 5-FU KLH immunogen in PBS on three successive days. Spleen cells were isolated from the selected mice and fused with 2×10^7 SP2/0 cells with 50% polyethylene glycol 1500 according to the method of Coligan, J. E. et al., eds., Current Protocols in Immunology, 2.5.1-2.5.8, (1992), Wiley & Sons, NY. The fused cells were plated on 10 96-well plates in DMEM/F12 supplemented with 20% FetalClone I, 2% L-glutamine (100 mM) and 2% 50×HAT. Two weeks later, the hybridoma supernatant was assayed for the presence of anti-5-FU by ELISA (example 12b). Positive wells were expanded and again screened by the same method. The positive clones were confirmed for 5-FU binding by a competitive ELISA (examples 12a and 15). Clones positive by ELISA were subcloned once or twice by limiting dilution according to the method disclosed in Coligan, J. E. et al., eds., Current Protocols in Immunology, 2.5.8-2.5.17, (1992), Wiley & Sons, NY.
(§2) The ELISA method for measuring 5-FU concentrations was performed in polystyrene microtiter plates (Nunc MaxiSorp C8 or F8 Immunomodules) optimized for protein binding and containing 96 wells per plate. Each well was coated with 5-FU-BSA conjugate (prepared as in example 8) by adding 300 μL of 5-FU-BSA conjugate at 10 μg/mL in 0.05M sodium bicarbonate, pH=9.6, and incubating for three hours at room temperature. The wells were washed with 0.05M sodium bicarbonate, pH9.6 and then were blocked with 400 μL of 5% sucrose, 0.2% sodium caseinate solution for 30 minutes at room temperature. After removal of the post-coat solution the plates were dried at 37° C. overnight.
(§3) The ELISA method for screening 5-FU antibodies (produced in example 9) was performed with the microtiter plates that were sensitized with 5-FU-BSA as described in examples 7a, 7b and 8. The antibody screening assay was performed by diluting the antisera containing 5-FU antibodies to 1:100, 1:1,000, 1:10,000 and 1:100,000 in phosphate buffered saline containing 0.1% BSA and 0.01% thimerosal. To each well of 5-FU-BSA sensitized wells (prepared in examples 11a, 11b and 10) 100 μL of diluted antibody was added and incubated for 10 minutes at room temperature with shaking. During this incubation antibody binds to the 5-FU-conjugate in the well. The wells of the plates were washed three times with 0.02 M TRIS, 0.9% NaCl, 0.5% Tween-80 and 0.001% Thimerosal, pH 7.8 to remove any unbound antibody. To detect the amount of 5-FU antibody bound to the 5-FU-BSA conjugate in the wells, 100 μL of a goat anti-mouse antibody-HRP enzyme conjugate (Jackson Immunoresearch) diluted 1/2000 in PBS with 0.1% BSA, 0.05% ANS, 0.01% thimerosal, capable of binding specifically with murine immunoglobulins and producing a colored product when incubated with a substrate, were added to each well. […]

[2] = test system: monoclonal antibody to 3-substituted 5-FU KLH immunogen (example 6b); assay: Indirect competitive microtiter plate immunoassay (ELISA), monoclonal antibody; plate coating 3-substituted BSA conjugate (1:1, example 7b); conditions: relative to 5-FU (ratio of IC50 for 5-FU to IC50 of analyte), 3-Substituted KLH Immunogen, plate coating 3-Substituted BSA Conjugate (example 7b)
Description: as §1
as §2, with “7b)” for “8)”, “375” for “400”
as §3

[3] = test system: polyclonal antibody to 1-Substituted 5-FU KLH Immunogen (example 5); assay: Indirect competitive microtiter plate immunoassay (ELISA), antibodies to 5-FU derivative 4 conjugate; plate coating 3-substituted BSA conjugate (10:1, example 7a); conditions: relative to 5-FU (ratio of IC50 for 5-FU to IC50 of analyte), 1-Substituted KLH Immunogen, plate coating 3-Substituted BSA Conjugate (10:1 ratio)
Description: as §1
as §2, with “7a)” for “8)”
as §3

Compound | Cross-Reactivity [1] | Cross-Reactivity ([1]; listed as thymine) | Cross-Reactivity [2] | Cross-Reactivity ([2]; listed as thymine) | Cross-Reactivity [3] | Cross-Reactivity ([1]; listed as tegafur) | Cross-Reactivity ([2]; listed as tegafur) | Cross-Reactivity ([3]; listed as tegafur) | Cross-Reactivity ([1]; listed as cytosine) | Cross-Reactivity ([2]; listed as cytosine) | Cross-Reactivity ([1]; listed as uracil) | Cross-Reactivity ([2]; listed as uracil)
Cc1c[nH]c(=O)[nH]c1=O [Thymine, thymine] | 12.0% | about 12% | 3.2% | less than 4% | 6.7% | – | – | – | – | – | – | –
O=c1[nH]c(=O)n(C2CCCO2)cc1F (stereo not drawn) [Tegafur, tegafur] | 0.5% | – | 1.0% | – | 200.0% | less than 1% | approximately 1% | 200% | – | – | – | –
Nc1cc[nH]c(=O)n1 [Cytosine, cytosine] | <0.3% | – | <0.01% | – | <0.1% | – | – | – | less than 0.03% | less than 0.01% | – | –
O=c1[nH]cc(F)c(=O)[nH]1 [5Fluorouracil, 5-fluoro-uracil] | 100.0% | – | 100.0% | – | 100.0% | – | – | – | – | – | – | –
O=c1cc[nH]c(=O)[nH]1 [Uracil, uracil] | 7.5% | – | 7.3% | – | 4.0% | – | – | – | – | – | less than 8% | less than 8%
